The text below walks through data of ChEMBL document CHEMBL1681659, “Discovery of novel positive allosteric modulators of the metabotropic glutamate receptor 5 (mGlu5)” (Bioorg Med Chem Lett, 2011).

The term half-life denotes the time needed for the level to fall by half in the phase considered. What is called microsomal CLint is a measure of how fast metabolising enzymes remove a compound, apart from limits set by blood flow.

Series [1] is described as follows: Chemical stability of the compound assessed as half life at pH 1. As to conditions: buffer. The series is classed as physicochemical.
A short description of series [2]: Chemical stability of the compound assessed as half life at pH 10. The series is classed as physicochemical. The settings on record: buffer.
A short description of series [3]: Intrinsic clearance in rat liver microsome. It is filed as ADME. The settings on record: liver microsomes. (Liver microsomes are vesicles of endoplasmic reticulum, rich in cytochrome P450 enzymes.)
Series [4] is described as follows: Intrinsic clearance in human liver microsome. The series is classed as ADME. The settings on record: liver microsomes.
A short description of series [5]: Chemical stability assessed as compound remaining after 1 hr by photolysis assay. The series is classed as physicochemical. As to conditions: read-out: Stability.

With `O=C1CCOc2nc(C#Cc3ccccc3)ccc21`, the half-life in series [1] is 278 h; in series [2], 24 h. Further, the microsomal CLint in series [3] turned out to be 95 µL/min/mg; in series [4], 120 µL/min/mg. Moreover, the remaining at 1 h in series [5] was determined as 0%.
